Experiments:
[1] = biological target: Kv7.3(KCNQ3) (Homo sapiens, UniProt O43525); test: BL-1249 selectivity (manual patch-clamp and flux assay platforms), Kv7.3; type: cell-based; conditions: 10 μM
[2] = biological target: TASK3 (K2P9.1) (Homo sapiens, UniProt Q9NPC2); parameters: method as in Cao et al., 2010; conditions: ref Cao et al., 2010; cited from earlier work
[3] = biological target: Kv7.2 (KCNQ2) (Homo sapiens, UniProt O43526); test: BL-1249 selectivity (manual patch-clamp and flux assay platforms), Kv7.2; type: cell-based; conditions: 10 μM
[4] = system: Na current in DRG neurons; test: Voltage-clamp recordings from DRG neurons, Na current; type: cell-based, rat
Procedure: Acutely dissociated rat DRG cells were obtained according to a previously described protocol (Passmore, 2005). All animal care and experimental procedures complied with guidelines and were approved by the Pfizer Neusentis Institutional Animal Use and Care Committee. Animal studies are reported in compliance with the ARRIVE guidelines (Kilkenny et al., 2010; McGrath and Lilley, 2015).Cells were plated on coated coverslips (poly‐D‐lysine/laminin, BD Biosciences, San Jose, CA, USA) prior to patching on the same day. Cells were perfused with an extracellular solution containing (in mM): 135 NaCl, 4.7 KCl, 1 CaCl2, 1 MgCl2, 10 HEPES and 10 glucose, pH 7.4, with NaOH (310 mOsmol·L^−1). Pipette solution contained (in mM): 130 KCl, 1 MgCl2, 5 MgATP, 10 HEPES and 5 EGTA, pH adjusted to 7.3 with KOH (290 mOsmol·L^−1). For whole‐cell recordings, currents were filtered at 2 kHz and sampled at 5 kHz. Series resistance was compensated for by up to 80%. For current‐clamp recordings, action potential firing and resting membrane potential (RMP) were recorded from small cells ([…]). GI‐530159 was dissolved in 0.3% DMSO as 10 mM stock and applied in the vicinity of cells using a gravity fed perfusion system (MSC‐200, Bio‐Logic SAS, Claix, France).

[5] = biological target: T1, hTRAAK (Homo sapiens, UniProt Q9NYG8); test: Whole-cell patch clamp, transiently transfected tsA-201 cells, TRAAK; type: cell-based; conditions: Supporting Information Figure S2
T1 construct: expressed in transfected cells; host or cells: tsA-201, transient, pcDNA3.1 vector
T1 sequence (Q9NYG8 1-393): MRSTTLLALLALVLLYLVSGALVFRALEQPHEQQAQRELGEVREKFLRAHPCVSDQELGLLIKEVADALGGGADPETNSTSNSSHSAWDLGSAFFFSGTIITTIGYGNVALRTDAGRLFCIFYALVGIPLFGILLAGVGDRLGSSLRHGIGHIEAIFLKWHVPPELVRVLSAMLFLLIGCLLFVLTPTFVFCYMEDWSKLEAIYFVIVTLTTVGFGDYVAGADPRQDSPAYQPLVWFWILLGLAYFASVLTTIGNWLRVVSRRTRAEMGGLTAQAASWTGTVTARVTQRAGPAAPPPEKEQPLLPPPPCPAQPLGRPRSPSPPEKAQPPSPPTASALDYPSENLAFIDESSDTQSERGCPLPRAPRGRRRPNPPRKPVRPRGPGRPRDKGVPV
Procedure: Recordings of hTREK1, hTREK1∆N, hTREK2, hTRAAK and […] currents from transiently transfected tsA‐201 cells were performed using methods as described in Veale and Mathie (2016). Briefly, the pcDNA3.1 vector was cloned with the gene of interest, and these vectors and a similar vector containing GFP were incorporated into the tsA201 cells (0.5 μg per well) using the calcium phosphate method. The cells were incubated for 6–12 h at 37°C in […] and 5% carbon dioxide. Cells were then washed using a PBS solution and used for experiments after 24 h.
Currents were recorded using whole‐cell patch‐clamp using an Axopatch 1D amplifier. Cells were placed in a recording chamber filled with an external medium composed of 145 mM, NaCl, 2.5 mM KCl, 3 mM MgCl2, 1 mM CaCl2 and 10 mM HEPES (pH to 7.4, using NaOH). The internal medium used in the glass pipette comprised 150 mM KCl, 3 mM MgCl2, 5 mM (or 0.1 mM) EGTA and 10 mM HEPES (pH to 7.4, using KOH). GI‐530159 was applied by bath perfusion. Currents were recorded and analysed using pCLAMP 10.2 software Microsoft Excel. The voltage protocol used for recording current through K2P channels was as previously described (Veale and Mathie, 2016). For analysis, we measured the current difference between the −80 and −40 mV steps.

[6] = biological target: T2, hTREK1 (Homo sapiens, UniProt O95069); test: Manual whole-cell patch clamp, HEK293 cells stably expressing TREK1; type: cell-based; parameters: expressed in transfected cells; conditions: 100 μM; n = 7
T2 sequence (O95069 1-426): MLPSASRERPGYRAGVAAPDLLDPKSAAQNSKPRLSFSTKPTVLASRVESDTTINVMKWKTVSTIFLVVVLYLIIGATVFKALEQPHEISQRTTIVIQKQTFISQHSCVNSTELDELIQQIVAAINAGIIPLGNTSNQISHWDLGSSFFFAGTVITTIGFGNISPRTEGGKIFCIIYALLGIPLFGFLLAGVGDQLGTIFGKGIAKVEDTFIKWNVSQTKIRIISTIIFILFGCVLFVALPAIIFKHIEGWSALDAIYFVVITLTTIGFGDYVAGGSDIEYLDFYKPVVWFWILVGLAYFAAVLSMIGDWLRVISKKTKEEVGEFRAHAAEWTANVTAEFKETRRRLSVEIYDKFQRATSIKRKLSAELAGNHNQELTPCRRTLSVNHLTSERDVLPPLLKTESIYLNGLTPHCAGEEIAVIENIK
Procedure: Electrophysiological studies were performed on CHO or HEK293 cells, stably expressing human recombinant TREK1; tsA‐201 cells transiently transfected with human recombinant K2P channels and acutely dissociated rat DRG cells, all at room temperature (22–24°C).
Studies were performed using a conventional patch clamp and Multiclamp 700B and pCLAMP software (Molecular Devices, Sunnyvale, CA, USA). For conventional manual patch clamp, glass coverslips containing HEK293 cells were perfused with an extracellular solution (ECS) containing (in mM): 135 NaCl, 4.7 KCl, 1 CaCl2, 1 MgCl2, 10 HEPES and 10 glucose, pH 7.4, with NaOH (310 mOsmol·L^−1). The patch pipette was filled with (in mM): 130 KCl, 1 MgCl2, 5 MgATP, 10 HEPES and 10 BAPTA, pH adjusted to 7.3 with KOH (290 mOsmol·L^−1).

[7] = system: TREK1; parameters: method as in Cao et al., 2010; conditions: ref Cao et al., 2010; read-out: EC50 in electrophysiological experiments; cited from earlier work
[8] = biological target: BK (KCa1.1) (Homo sapiens, UniProt Q12791); test: BL-1249 selectivity (manual patch-clamp and flux assay platforms), BK; type: cell-based; conditions: 10 μM
Chain of BK (KCa1.1) (Q12791 whole entry, species assumed): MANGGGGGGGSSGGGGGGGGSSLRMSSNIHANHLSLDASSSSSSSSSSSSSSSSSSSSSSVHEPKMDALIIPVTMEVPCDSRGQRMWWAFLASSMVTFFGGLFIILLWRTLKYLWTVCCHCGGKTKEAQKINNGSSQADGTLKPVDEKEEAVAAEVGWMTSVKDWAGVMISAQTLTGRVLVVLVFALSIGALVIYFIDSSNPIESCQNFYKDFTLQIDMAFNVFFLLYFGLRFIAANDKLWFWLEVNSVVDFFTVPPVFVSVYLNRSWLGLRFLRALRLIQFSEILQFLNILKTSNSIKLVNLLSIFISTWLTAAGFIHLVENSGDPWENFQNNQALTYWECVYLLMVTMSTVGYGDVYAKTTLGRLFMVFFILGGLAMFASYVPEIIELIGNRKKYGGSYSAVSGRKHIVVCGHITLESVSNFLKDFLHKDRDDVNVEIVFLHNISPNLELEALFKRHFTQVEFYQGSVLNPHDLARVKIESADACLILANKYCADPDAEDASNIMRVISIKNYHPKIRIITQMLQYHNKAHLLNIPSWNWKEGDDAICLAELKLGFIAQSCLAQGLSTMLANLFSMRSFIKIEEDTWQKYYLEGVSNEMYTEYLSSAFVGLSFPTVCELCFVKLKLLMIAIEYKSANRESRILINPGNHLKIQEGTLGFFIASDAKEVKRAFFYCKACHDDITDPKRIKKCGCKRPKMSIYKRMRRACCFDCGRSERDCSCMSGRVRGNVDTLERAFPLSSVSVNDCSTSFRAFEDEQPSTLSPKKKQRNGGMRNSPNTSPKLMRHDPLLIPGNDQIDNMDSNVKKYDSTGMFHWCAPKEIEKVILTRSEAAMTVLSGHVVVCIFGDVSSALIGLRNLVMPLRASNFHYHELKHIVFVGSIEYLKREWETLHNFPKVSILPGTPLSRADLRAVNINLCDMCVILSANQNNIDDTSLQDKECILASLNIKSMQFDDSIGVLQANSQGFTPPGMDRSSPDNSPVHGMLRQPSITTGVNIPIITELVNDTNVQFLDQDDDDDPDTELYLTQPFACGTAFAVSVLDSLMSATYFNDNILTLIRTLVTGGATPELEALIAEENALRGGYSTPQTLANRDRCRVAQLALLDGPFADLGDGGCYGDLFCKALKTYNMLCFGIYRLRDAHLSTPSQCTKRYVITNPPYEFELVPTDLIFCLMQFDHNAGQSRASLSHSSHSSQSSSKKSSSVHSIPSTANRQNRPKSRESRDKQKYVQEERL

[9] = biological target: NaV1.7 (Homo sapiens, UniProt Q15858); test: BL-1249 selectivity (manual patch-clamp and flux assay platforms), NaV1.7; type: cell-based; conditions: 10 μM
Chain of NaV1.7 (Q15858 whole entry): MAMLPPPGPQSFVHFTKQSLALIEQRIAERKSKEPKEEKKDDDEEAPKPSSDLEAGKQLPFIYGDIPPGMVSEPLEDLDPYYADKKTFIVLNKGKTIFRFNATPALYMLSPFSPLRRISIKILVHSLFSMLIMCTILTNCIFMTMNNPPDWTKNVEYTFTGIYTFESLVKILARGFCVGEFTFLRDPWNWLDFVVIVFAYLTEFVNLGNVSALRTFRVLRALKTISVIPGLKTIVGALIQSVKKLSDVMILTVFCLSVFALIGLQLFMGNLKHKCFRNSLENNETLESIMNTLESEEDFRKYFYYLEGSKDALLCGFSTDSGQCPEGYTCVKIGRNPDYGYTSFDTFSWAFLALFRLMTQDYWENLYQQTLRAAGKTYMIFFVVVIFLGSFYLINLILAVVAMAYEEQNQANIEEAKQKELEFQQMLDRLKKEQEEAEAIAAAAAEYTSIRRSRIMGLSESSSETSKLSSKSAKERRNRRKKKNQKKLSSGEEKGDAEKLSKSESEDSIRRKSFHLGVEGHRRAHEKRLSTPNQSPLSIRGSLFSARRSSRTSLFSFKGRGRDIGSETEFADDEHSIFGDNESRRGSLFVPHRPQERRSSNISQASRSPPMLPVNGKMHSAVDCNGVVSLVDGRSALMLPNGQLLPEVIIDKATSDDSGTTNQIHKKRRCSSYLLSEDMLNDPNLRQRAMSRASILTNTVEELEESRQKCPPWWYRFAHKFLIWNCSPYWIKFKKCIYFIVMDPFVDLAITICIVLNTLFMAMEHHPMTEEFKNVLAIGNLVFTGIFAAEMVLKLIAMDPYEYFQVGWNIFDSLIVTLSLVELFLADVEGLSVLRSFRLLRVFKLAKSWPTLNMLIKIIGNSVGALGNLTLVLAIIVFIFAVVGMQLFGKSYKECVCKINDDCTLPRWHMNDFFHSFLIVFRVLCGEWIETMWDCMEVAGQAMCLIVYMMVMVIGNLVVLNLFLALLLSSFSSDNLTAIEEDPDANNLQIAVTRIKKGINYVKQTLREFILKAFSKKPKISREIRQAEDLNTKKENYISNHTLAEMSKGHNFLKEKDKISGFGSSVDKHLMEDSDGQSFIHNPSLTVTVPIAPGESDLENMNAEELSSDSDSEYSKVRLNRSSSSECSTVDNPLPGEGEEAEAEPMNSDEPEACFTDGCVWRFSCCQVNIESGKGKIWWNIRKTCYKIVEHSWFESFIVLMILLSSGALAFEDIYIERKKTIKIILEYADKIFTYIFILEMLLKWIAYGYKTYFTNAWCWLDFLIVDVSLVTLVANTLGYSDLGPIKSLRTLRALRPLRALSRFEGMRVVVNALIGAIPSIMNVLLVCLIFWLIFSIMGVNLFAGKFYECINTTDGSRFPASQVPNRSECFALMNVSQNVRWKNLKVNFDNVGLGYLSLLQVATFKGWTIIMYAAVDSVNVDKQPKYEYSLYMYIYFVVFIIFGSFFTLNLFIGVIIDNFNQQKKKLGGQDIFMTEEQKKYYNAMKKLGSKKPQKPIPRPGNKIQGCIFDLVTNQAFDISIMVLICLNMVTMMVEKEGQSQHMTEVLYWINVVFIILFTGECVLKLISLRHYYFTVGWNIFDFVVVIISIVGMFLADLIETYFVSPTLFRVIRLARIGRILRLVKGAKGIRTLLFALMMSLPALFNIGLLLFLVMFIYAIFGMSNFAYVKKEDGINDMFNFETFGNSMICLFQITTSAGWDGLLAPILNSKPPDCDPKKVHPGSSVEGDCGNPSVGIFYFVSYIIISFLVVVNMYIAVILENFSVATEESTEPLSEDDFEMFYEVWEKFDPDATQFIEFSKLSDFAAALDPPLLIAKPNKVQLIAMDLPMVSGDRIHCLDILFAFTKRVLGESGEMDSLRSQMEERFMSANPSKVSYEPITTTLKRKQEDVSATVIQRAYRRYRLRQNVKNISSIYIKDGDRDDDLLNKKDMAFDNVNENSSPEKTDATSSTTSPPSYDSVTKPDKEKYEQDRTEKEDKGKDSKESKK

Chain of TASK3 (K2P9.1) (Q9NPC2 whole entry, species assumed): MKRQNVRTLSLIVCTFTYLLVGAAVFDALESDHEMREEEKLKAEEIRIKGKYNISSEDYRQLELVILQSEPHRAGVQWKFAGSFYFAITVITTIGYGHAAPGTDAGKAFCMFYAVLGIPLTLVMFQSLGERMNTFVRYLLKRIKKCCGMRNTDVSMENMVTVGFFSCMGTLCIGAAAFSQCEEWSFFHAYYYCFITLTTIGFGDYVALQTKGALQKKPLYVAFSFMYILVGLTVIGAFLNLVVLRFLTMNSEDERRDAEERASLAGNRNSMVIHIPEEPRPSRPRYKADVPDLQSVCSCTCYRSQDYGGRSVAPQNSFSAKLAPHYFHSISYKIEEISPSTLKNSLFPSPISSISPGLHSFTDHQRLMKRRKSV

effect on Kv7.3 (KCNQ3) [1]: significant inhibition
effect on Kv7.2 (KCNQ2) [3]: significant inhibition
effect on TRAAK channels [5]: clear enhancement
maximal enhanced current [6]: 7.2 ± 1.3 nA
effect on BK (KCa1.1) [8]: significant inhibition
effect on NaV1.7 [9]: significant inhibition
Compound: c1ccc(-c2nnn[nH]2)c(Nc2cccc3c2CCCC3)c1 [BL‐1249, (5,6,7,8‐tetrahydro‐naphthalen‐1‐yl)‐[2‐(1H‐tetrazol‐5‐yl)‐phenyl]‐amine]
effect on TASK3 (K2P9.1) channels [2]: strong activator
block of Na current in DRG neurons [4]: clear block
EC50 [7]: ~1000 nM

Reference: publication PMC5980259, “GI‐530159, a novel, selective, mechanosensitive two‐pore‐domain potassium (K2P) channel opener, reduces rat dorsal root ganglion neuron excitability” (British Journal of Pharmacology, 2017)
